US20150190360A1, “METHODS OF ADMINISTERING MONOMETHYL FUMARATE” (XenoPort, Inc., priority 2013, published 2015)

Tests used:
[1] = system: imiquimod (IMQ) mouse model of psoriasis; assay type: in vivo, Balb/c mice
Procedure: In the imiquimod (IMQ) mouse model of psoriasis. Balb/c mice (10 males/group) received daily topical IMQ (5% cream) on shaved back and right ear for 5 days. Animals received oral active drug (90 mg-eq MMF/kg twice daily) or vehicle from Day −5 to Day 5. Erythema score was the primary outcome measure. […] The AUCmolar-MMF-GA:AUCmolar-MMF Ratio (%) in mice dosed with active drug at 90 mg/kg was 23.6%.

[2] = system: MOG35-55 mouse EAE model of MS

CCN(CC)C(=O)COC(=O)/C=C/C(=O)OC [Active drug, (N,N-diethylcarbamoyl)methyl methyl (2E)but-2-ene-1,4-dioate]
AUCmolar-MMF-GA:AUCmolar-MMF Ratio ([1]; male, Balb/c, mouse, in vivo, 90 mg/kg): 23.6% | Erythema score versus control ([1]; oral 90 mg-eq MMF/kg twice daily from Day -5 to Day 5, Balb/c mice, topical IMQ 5% cream): significant reduction | AUCmolar-MMF-GA:AUCmolar-MMF Ratio ([2]; female, C57BL/6, mouse, in vivo, 90 mg/kg): 23.6% | EAE clinical score (Day 29 and overall AUC) compared to vehicle ([2]; oral 90 mg-eq MMF/kg twice daily on Days 3 to 29, C57BL/6 mice, 5 point scale): significant reduction
